Measured values from ChEMBL document CHEMBL3877324, “Synthesis of new spirooxindole-pyrrolothiazole derivatives: Anti-cancer activity and molecular docking” (Bioorg Med Chem, 2017).

Key:
[1] = Growth inhibition of human K562 cells after 48 hrs by WST1 assay; type: functional, cell-based; details: K562, 48 h
[2] = Growth inhibition of human MCF7 cells after 48 hrs by WST1 assay; type: functional, cell-based; details: MCF7, 48 h
MCF7 = assay: Induction of apoptosis in human MCF7 cells at 10 uM after 48 hrs by Annexin-V FITC/propidium iodide staining based flow cytometry relative to control; type: functional

| Compound | IC50 [1] [µM] | IC50 [2] [µM] | fold change (FC) (MCF7) |
| --- | --- | --- | --- |
| O=C1Nc2ccccc2[C@]12N1CSC[C@H]1[C@H](c1ccc(Cl)cc1)[C@]21CCC/C(=C\c2ccc(Cl)cc2)C1=O | 24 | 49.1 |  |
| Cc1cccc(/C=C2\CCC[C@@]3(C2=O)[C@@H](c2cccc(C)c2)[C@@H]2CSCN2[C@@]32C(=O)Nc3ccccc32)c1 | 30.7 | 28.1 |  |
| O=C1Nc2ccccc2[C@]12N1CSC[C@H]1[C@H](c1ccc(Br)cc1)[C@]21CCC/C(=C\c2ccc(Br)cc2)C1=O | 14.7 | 15.3 | 2 |
| COc1ccc(/C=C2\CCC[C@@]3(C2=O)[C@@H](c2ccc(OC)cc2)[C@@H]2CSCN2[C@@]32C(=O)Nc3ccccc32)cc1 | 19.5 | 24.4 |  |
| O=C1Nc2ccccc2[C@]12N1CSC[C@H]1[C@H](c1cccc(F)c1)[C@]21CCC/C(=C\c2cccc(F)c2)C1=O | 15.7 | 145 |  |
| O=C1Nc2ccccc2[C@]12N1CSC[C@H]1[C@H](c1ccccc1)[C@]21CCC/C(=C\c2ccccc2)C1=O | 16.6 | 26.8 |  |
| O=C1Nc2ccccc2[C@]12N1CSC[C@H]1[C@H](c1cccc([N+](=O)[O-])c1)[C@]21CCC/C(=C\c2cccc([N+](=O)[O-])c2)C1=O | 27.6 | 25.8 |  |
| O=C1Nc2ccccc2[C@]12N1CSC[C@H]1[C@H](c1cccc(Br)c1)[C@]21CCC/C(=C\c2cccc(Br)c2)C1=O | 22.2 | 34.8 |  |
| Cc1ccc(/C=C2\CCC[C@@]3(C2=O)[C@@H](c2ccc(C)cc2)[C@@H]2CSCN2[C@@]32C(=O)Nc3ccccc32)cc1 | 38.1 | 43.1 |  |
| O=C1Nc2ccccc2[C@]12N1CSC[C@H]1[C@H](c1ccc(C(F)(F)F)cc1)[C@]21CCC/C(=C\c2ccc(C(F)(F)F)cc2)C1=O | 33.2 | 49.4 |  |
| O=C1Nc2ccccc2[C@]12N1CSC[C@H]1C(c1ccc(Cl)cc1Cl)[C@]21CCC/C(=C\c2ccc(Cl)cc2Cl)C1=O (single isomer, unassigned) | 19.5 | 26.1 |  |
| O=c1[nH]cc(F)c(=O)[nH]1 [FLUOROURACIL] |  | 78.3 |  |
